Measurements taken from patent publication US20260132129A1 (Genesis Therapeutics, Inc., priority 2022, published 2026).

Biological target: T1, PI3Kα H1047R (T47D cells) (Homo sapiens, UniProt P42336, H1047R)
T1 construct: endogenous in cells; host or cells: T47D cells
Experiment: PI3Kα cellular assay: pAKT HTRF in T47D cells after EGF stimulation
Format: cell-based
Conditions: for IC50: T47D cells (PI3Kα H1047R), pAKT S473 HTRF, 1 hr compound, 20 ng/ml EGF 10 min
Outline: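 T47D cells (PIK3CA H1047R) serum-starved 16 h, then treated 1 h at 37 °C with compound (10,000 nM top, 3-fold steps to 0.5 nM). After 10 min stimulation with 20 ng/mL EGF, cells were lysed and pAKT measured by HTRF.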

T1 sequence (P42336 whole entry H1047R): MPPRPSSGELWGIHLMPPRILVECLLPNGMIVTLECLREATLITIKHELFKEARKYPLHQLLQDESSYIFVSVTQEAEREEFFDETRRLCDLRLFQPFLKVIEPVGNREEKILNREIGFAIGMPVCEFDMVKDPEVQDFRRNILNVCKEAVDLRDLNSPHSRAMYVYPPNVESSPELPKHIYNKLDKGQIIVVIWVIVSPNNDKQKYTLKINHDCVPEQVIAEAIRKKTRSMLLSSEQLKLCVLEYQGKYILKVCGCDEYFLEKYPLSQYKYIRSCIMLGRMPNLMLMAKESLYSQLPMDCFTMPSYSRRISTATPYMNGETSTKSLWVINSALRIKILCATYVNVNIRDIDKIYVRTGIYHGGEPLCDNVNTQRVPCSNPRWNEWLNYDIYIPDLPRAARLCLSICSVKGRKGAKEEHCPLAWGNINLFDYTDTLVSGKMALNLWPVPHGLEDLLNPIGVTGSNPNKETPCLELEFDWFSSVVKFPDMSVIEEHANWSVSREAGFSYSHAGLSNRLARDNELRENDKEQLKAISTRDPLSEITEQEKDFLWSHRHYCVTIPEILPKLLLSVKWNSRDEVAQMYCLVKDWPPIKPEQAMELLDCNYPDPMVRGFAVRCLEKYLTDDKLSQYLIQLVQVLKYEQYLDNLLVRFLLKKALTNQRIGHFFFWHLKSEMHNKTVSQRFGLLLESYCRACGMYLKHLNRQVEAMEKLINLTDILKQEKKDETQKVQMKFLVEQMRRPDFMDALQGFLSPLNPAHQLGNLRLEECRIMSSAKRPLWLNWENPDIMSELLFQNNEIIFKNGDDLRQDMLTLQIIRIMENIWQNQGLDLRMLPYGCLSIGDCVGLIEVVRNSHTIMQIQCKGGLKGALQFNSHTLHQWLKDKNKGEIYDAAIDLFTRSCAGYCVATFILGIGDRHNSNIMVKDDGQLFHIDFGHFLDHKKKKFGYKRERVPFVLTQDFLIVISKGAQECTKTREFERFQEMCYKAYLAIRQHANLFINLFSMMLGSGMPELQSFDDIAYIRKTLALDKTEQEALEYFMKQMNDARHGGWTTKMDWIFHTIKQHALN
T1 sequence (P27986 whole entry partner): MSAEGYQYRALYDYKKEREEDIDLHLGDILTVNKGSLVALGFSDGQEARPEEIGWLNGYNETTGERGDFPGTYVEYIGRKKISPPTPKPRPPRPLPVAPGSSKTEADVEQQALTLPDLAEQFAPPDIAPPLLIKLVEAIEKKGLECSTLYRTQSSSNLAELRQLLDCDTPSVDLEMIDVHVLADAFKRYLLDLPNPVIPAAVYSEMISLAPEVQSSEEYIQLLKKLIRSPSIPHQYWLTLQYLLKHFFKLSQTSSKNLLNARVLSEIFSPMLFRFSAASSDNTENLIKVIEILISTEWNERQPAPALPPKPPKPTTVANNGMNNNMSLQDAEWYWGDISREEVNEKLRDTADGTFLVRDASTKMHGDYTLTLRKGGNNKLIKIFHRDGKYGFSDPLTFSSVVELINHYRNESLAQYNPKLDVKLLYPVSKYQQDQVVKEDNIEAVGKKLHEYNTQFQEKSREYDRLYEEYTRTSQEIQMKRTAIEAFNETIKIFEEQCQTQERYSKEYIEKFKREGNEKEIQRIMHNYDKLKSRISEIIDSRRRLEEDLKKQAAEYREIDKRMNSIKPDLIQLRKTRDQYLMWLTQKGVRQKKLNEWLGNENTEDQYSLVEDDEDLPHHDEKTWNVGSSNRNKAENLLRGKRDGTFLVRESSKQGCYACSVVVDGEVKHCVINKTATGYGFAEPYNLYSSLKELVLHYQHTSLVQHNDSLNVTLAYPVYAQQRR

Row | IC50 | T47D pAKT S473 HTRF IC50 (H1047R): T47D (H1047R) selectivity over SKBR3 (WT) | SMILES
1 | 100 to 500 nM | A (A denotes >20-fold) | Cc1cc(C(C)Nc2ccccc2S(N)(=O)=O)c2nc(-c3cc(C)c4oc(=O)[nH]c4c3)cc(=O)n2c1 (stereo not shown) [Compound 570]
2 | > 2000 nM | C (C denotes ≤5-fold) | Cc1cc(C(C)Nc2ccccc2S(N)(=O)=O)c2nc(-c3cc(C)c4oc(=O)[nH]c4c3)cc(=O)n2c1 (stereo not shown) [Compound 571]
3 | > 2000 nM | C (C denotes ≤5-fold) | Cc1cc([C@H](C)Nc2ccccc2C(=O)O)c2nc(Nc3ccc4[nH]c(=O)[nH]c4c3)cc(=O)n2c1 [Compound 574]
4 | 100 to 500 nM | A (A denotes >20-fold) | Cc1cc([C@@H](C)Nc2ccccc2C(=O)O)c2nc(-c3ccc4c(c3)NC(=O)C4)cc(=O)n2c1 [Compound 575]
5 | > 2000 nM | C (C denotes ≤5-fold) | Cc1cc([C@H](C)Nc2ccccc2C(=O)O)c2nc(-c3ccc4c(c3)NC(=O)C4)cc(=O)n2c1 [Compound 576]
6 | 100 to 500 nM | A (A denotes >20-fold) | CNC1=NC2C=C(c3cc(=O)n4cc(C)cc(C(C)Nc5ccccc5C(=O)O)c4n3)C=CC2=C1 (stereo not shown) [Compound 577]
7 | – | C (C denotes ≤5-fold) | CC(=O)N[C@H]1CCCC(c2cc(=O)n3cc(C)cc(C(C)Nc4ccccc4C(=O)O)c3n2)C1 (stereo partly shown) [Compound 580]
8 | – | C (C denotes ≤5-fold) | Cc1cc(C(C)Nc2ccccc2C(=O)O)c2nc(N3CCN(C(C)(C)C(N)=O)CC3)cc(=O)n2c1 (stereo not shown) [Compound 581]
9 | > 2000 nM | C (C denotes ≤5-fold) | Cc1cc(C(C)Nc2ccccc2S(N)(=O)=O)c2nc(-c3ccc(F)cc3)cc(=O)n2c1 (stereo not shown) [Compound 585]
10 | > 2000 nM | C (C denotes ≤5-fold) | Cc1cc(C(C)Nc2ccccc2S(N)(=O)=O)c2nc(-c3ccc(F)cc3)cc(=O)n2c1 (stereo not shown) [Compound 586]
11 | > 2000 nM | C (C denotes ≤5-fold) | Cc1cc([C@H](C)Nc2ccccc2S(N)(=O)=O)c2nc(-c3ccc(F)cc3)cc(=O)n2c1 [Compound 587]
12 | > 2000 nM | C (C denotes ≤5-fold) | Cc1cc([C@H](C)Nc2cccc3c2CCC(=O)N3)c2nc(N3CCOCC3)cc(=O)n2c1 [Compound 604]
13 | < 100 nM | A (A denotes >20-fold) | Cc1cc([C@@H](C)Nc2ccccc2S(N)(=O)=O)c2nc(N3Cc4ccccc4C3)cc(=O)n2c1 [Compound 605, (R)-2-((1-(2-(isoindolin-2-yl)-7-methyl-4-oxo-4H-pyrido[1,2-a]pyrimidin-9-yl)ethyl)amino)benzenesulfonamide]
14 | 100 to 500 nM | A (A denotes >20-fold) | Cc1cc(C(C)Nc2ccccc2C(=O)O)c2nc(C3CCC(C)(C)CC3)cc(=O)n2c1 (stereo not shown) [Compound 622]

The next lines start with the compound.

Row | SMILES | IC50 | T47D pAKT S473 HTRF IC50 (H1047R): T47D (H1047R) selectivity over SKBR3 (WT)
15 | Cc1cc([C@H](C)Nc2ccccc2C(=O)O)c2nc([C@H]3CCOC3)cc(=O)n2c1 [Compound 539] | 500 to 2000 nM | B (B denotes 20-fold≥value>5-fold)
16 | Cc1cc([C@@H](C)Nc2ccccc2C(=O)O)c2nc(-c3ccc4[nH]c(=O)oc4c3)cc(=O)n2c1 [Compound 541] | 100 to 500 nM | A (A denotes >20-fold)
17 | Cc1cc([C@H](C)Nc2ccccc2C(=O)O)c2nc(-c3ccc4[nH]c(=O)oc4c3)cc(=O)n2c1 [Compound 542] | > 2000 nM | C (C denotes ≤5-fold)
18 | Cc1cc(C(C)Nc2ccccc2C(=O)O)c2nc(C3CCC(NS(C)(=O)=O)CC3)c(C)c(=O)n2c1 (stereo not shown) [Compound 543] | > 2000 nM | C (C denotes ≤5-fold)
19 | Cc1cc(C(C)Nc2ccccc2C(=O)O)c2nc(C3CCC(NS(C)(=O)=O)CC3)c(C)c(=O)n2c1 (stereo not shown) [Compound 544] | > 2000 nM | C (C denotes ≤5-fold)
20 | Cc1cc([C@@H](C)Nc2ccccc2C(=O)O)c2nc(Nc3ccc4[nH]c(=O)oc4c3)cc(=O)n2c1 [Compound 546] | > 2000 nM | C (C denotes ≤5-fold)
21 | Cc1cc([C@H](C)Nc2ccccc2C(=O)O)c2nc(Nc3ccc4[nH]c(=O)oc4c3)cc(=O)n2c1 [Compound 547] | > 2000 nM | C (C denotes ≤5-fold)
22 | Cc1cc(C(C)Nc2ccccc2C(=O)O)c2nc(Nc3ccc4[nH]c(=O)oc4c3)cc(=O)n2c1 (stereo not shown) [Compound 548] | > 2000 nM | C (C denotes ≤5-fold)
23 | Cc1cc(C(C)Nc2ccccc2C(=O)O)c2nc(N3CCN(CCC(N)=O)CC3)cc(=O)n2c1 (stereo not shown) [Compound 550] | > 2000 nM | C (C denotes ≤5-fold)
24 | Cc1cc(C(C)Nc2ccccc2C(=O)O)c2nc(N3CCN(CCC(N)=O)CC3)cc(=O)n2c1 (stereo not shown) [Compound 551] | > 2000 nM | C (C denotes ≤5-fold)
25 | C=C(C)C1CCCC(c2cc(=O)n3cc(C)cc([C@@H](C)Nc4ccccc4C(=O)O)c3n2)CC1 (stereo partly shown) [Compound 552] | – | C (C denotes ≤5-fold)
26 | Cc1cc(C(C)Nc2ccccc2C(=O)O)c2nc(N3CCN(C(C)(C)C(N)=O)CC3)cc(=O)n2c1 (stereo not shown) [Compound 554] | > 2000 nM | C (C denotes ≤5-fold)
27 | Cc1cc([C@@H](C)Oc2ccccc2C(N)=O)c2nc(N3CCOCC3)cc(=O)n2c1 [Compound 562] | > 2000 nM | C (C denotes ≤5-fold)
28 | Cc1cc([C@@H](C)Nc2cccc3[nH]c(=O)oc23)c2nc(N3CCOCC3)cc(=O)n2c1 [Compound 565] | > 2000 nM | C (C denotes ≤5-fold)
29 | Cc1cc([C@H](C)Nc2cccc3[nH]c(=O)oc23)c2nc(N3CCOCC3)cc(=O)n2c1 [Compound 566] | > 2000 nM | C (C denotes ≤5-fold)
